Patent US20040081973A1, “Cloning and characterization of a novel BK channel isoform highly expressed in glioma cells” (priority 2002, published 2004)

How the values were obtained:
Kca current = details: CEFs transformed with Rous sarcoma virus (Repp et al., 1993); cited from earlier work
gBK = molecular target: T1, gBK (Homo sapiens, UniProt Q12791); experiment: Tetrandrine inhibition of gBK currents in outside-out patches; type: cell-based; details: 3 uM tetrandrine, voltage steps to +120 mV
T1 construct: Outside-out patches were isolated from STTG-1 cells; endogenous in cells
T1 sequence (Q12791 1-1239 isoform Q12791-7): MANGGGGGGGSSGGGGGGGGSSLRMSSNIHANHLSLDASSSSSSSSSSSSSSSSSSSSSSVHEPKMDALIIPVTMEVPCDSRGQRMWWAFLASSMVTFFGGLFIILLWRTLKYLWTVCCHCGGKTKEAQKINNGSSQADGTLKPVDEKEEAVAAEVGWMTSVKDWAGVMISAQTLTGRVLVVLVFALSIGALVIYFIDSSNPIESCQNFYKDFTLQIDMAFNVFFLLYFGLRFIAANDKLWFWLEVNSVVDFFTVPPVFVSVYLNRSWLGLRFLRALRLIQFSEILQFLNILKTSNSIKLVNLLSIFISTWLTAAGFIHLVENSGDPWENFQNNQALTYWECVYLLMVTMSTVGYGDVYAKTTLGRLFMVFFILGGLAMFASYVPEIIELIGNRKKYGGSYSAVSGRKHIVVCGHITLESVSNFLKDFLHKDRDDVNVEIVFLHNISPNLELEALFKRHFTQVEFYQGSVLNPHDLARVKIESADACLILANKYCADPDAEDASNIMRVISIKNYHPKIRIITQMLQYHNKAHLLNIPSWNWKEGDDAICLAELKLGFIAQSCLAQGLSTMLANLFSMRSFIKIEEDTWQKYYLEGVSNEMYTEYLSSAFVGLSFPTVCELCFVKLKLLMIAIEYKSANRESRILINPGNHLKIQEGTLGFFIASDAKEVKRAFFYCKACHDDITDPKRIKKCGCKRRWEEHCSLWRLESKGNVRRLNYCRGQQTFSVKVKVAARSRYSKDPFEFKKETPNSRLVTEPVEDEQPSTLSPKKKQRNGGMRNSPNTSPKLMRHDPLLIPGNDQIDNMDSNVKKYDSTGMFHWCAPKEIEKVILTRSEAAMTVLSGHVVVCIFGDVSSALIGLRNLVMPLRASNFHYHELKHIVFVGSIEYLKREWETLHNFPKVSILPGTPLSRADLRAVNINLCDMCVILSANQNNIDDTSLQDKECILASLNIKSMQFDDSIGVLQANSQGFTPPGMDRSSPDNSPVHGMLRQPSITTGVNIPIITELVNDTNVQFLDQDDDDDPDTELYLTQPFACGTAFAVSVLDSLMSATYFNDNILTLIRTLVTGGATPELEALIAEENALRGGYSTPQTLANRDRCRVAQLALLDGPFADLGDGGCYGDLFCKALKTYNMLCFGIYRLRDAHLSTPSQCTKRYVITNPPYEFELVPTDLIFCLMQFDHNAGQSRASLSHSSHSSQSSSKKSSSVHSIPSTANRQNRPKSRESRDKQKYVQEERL
Protocol: Outside-out patches were isolated from STTG-1 cells and the voltage dependence of gBK currents were isolated with different [Ca^2+]i. Currents were integrated over the period of a voltage step and the average conductance was calculated from these areas (Ransom and Sontheimer, 2002). For each patch, 5-20 families of current traces over a range of voltages were obtained and the average conductance values at each membrane potential were determined. The normalized conductance was plotted as a function of membrane potential (activation curves) and fit to the Boltzman equation to obtain half-maximal voltages, V0.5. A total of 45 outside-out patches and their corresponding activation curves with [Ca^2+]i of 0 (10 mM EGTA added), 1.5×10−7 M and 2.1×10−6 M were determined. […] (FIGS. 11A and 11B). For comparison, the same set of experiments was performed on the hbr5 BK channel (Ransom and Sontheimer, 2002). V0.5 for hbr5 BK channel at [Ca^2+]i of 0 (10 mM EGTA added), 1.5×10−7 M and 2.1×10−6 M were +118 mV, +52 mV and −23 mV (FIGS. 12A and 12B).
If gBK channels are associated with β-subunits, then they should be sensitive to tetrandrine, a plant alkaloid. 3 uM tetrandrine has been reported to inhibit β-subunit-containing channels over 50%.

hbr5 = molecular target: T2, hbr5 (Homo sapiens, UniProt Q12791); experiment: Tetrandrine inhibition of hbr5 currents in outside-out patches from HEK cells transfected with hbr5; type: cell-based; details: HEK293, 3 uM tetrandrine, voltage steps to +120 mV
T2 construct: expressed in transfected cells; host or cells: HEK cells
T2 sequence (Q12791 1-1207 isoform Q12791-4): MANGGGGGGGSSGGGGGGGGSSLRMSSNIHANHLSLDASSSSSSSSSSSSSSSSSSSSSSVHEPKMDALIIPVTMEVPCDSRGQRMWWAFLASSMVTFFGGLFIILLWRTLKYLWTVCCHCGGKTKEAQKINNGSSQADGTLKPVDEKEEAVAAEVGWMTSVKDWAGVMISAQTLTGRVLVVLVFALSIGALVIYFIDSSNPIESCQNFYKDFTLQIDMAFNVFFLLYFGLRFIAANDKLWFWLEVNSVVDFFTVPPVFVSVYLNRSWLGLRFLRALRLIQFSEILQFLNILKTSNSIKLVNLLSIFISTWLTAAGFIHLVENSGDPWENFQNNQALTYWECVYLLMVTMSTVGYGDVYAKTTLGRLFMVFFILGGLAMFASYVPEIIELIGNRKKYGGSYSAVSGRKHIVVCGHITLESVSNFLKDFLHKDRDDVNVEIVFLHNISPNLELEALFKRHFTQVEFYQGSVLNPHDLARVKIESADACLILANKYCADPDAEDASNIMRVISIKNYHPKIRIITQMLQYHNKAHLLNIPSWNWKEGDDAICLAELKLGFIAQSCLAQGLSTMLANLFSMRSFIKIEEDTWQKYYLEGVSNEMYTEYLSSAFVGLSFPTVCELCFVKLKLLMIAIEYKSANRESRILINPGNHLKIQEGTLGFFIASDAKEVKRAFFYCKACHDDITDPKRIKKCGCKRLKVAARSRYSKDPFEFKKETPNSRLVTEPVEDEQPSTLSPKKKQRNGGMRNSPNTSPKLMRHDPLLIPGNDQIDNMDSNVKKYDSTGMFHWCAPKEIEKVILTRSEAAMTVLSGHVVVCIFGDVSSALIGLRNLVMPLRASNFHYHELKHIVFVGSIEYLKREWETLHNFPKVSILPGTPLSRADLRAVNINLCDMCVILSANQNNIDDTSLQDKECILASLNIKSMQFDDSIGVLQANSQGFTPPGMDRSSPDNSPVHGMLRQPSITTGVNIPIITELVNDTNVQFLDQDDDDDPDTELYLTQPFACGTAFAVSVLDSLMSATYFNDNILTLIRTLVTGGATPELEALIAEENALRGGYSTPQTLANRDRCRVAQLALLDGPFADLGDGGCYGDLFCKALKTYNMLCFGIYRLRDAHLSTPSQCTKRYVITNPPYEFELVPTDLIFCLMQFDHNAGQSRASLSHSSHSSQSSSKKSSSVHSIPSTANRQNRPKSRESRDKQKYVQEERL

Kca = details: EGF and PDGF stimulation (Huang and Rane, 1994); cited from earlier work
[1] = molecular target: glioma BK (gBK) channel, novel splice variant of hSlo alpha-subunit (human) (UniProt Q12791); experiment: cell-based or functional assay
glioma BK (gBK) channel, novel splice variant of hSlo alpha-subunit (human), sequence (Q12791 other isoform, or with tags, fused parts or gaps mutant): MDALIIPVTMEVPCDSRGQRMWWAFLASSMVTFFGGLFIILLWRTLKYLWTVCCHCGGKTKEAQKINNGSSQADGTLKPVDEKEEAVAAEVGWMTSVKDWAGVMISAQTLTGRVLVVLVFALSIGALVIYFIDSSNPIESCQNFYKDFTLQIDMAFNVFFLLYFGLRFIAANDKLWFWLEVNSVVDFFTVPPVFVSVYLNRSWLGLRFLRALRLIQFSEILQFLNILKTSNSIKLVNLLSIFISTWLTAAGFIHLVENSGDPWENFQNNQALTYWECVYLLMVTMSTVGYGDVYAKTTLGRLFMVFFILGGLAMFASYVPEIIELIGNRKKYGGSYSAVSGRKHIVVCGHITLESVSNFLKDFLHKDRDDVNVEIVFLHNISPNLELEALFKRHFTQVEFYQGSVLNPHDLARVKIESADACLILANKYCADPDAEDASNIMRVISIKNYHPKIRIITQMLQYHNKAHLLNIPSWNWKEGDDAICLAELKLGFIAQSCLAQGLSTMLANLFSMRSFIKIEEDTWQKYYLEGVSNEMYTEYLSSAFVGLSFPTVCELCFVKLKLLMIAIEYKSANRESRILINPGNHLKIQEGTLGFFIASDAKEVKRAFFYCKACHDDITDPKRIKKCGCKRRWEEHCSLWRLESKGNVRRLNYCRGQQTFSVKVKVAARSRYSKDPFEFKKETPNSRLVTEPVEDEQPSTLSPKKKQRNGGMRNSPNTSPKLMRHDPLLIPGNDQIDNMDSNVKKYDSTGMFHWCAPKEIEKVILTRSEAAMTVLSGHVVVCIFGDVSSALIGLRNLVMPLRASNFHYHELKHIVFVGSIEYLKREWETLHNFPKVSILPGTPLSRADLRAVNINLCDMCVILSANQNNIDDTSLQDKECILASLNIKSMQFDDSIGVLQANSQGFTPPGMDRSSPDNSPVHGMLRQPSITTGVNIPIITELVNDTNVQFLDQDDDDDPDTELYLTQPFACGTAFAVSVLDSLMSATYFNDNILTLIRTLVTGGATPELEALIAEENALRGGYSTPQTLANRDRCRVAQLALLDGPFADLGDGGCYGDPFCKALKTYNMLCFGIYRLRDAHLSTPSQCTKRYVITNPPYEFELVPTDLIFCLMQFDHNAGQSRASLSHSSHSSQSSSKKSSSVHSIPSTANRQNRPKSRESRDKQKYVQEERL

Molecule: CC[N+](CC)(CC)CC [TEA]
- IC50 (Kca current): 1800 µM

Molecule: COc1ccc2cc1Oc1ccc(cc1)C[C@H]1c3cc(c(OC)cc3CCN1C)Oc1c(OC)c(OC)cc3c1[C@H](C2)N(C)CC3 [tetrandrine]
- inhibition at 3 µM (gBK): 63%
- inhibition at 3 µM (hbr5): 14%

Molecule: charybdotoxin [ChTX]
- IC50 (Kca current): 0.019 µM
- Effect on mitogenic stimulation (Kca): inhibited the stimulatory effect of the mitogen

Molecule: iberiotoxin (IbTX) (from UniProt P24663 1-37) (peptide)
- inhibition of total outward currents in gBK injected oocytes by 100 nM IbTX [1]: > 60%
